In the test the target is bovine erythrocyte CA II (bCA-II) (Bos taurus, UniProt P00921). The experiment in a line: In vitro carbonic anhydrase inhibition assay. The format is biochemical. To be noted: for % inhibition: bCA-II, substrate 4-NPA, 25 °C, pH 7.4, test concentration not given; for inhibition activity against bCA-II (in words): qualitative statement.
Chain of bovine erythrocyte CA II (bCA-II) (P00921 whole entry): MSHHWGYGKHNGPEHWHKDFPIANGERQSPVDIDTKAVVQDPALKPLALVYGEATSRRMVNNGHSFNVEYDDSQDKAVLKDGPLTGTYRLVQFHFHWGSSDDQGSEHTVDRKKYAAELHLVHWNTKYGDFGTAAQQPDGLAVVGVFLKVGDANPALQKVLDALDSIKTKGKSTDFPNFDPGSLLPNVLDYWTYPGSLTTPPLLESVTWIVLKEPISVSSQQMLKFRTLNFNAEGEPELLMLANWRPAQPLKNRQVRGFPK

As for `CCCSc1nc2ccccc2n1CC(=O)NN=Cc1ccc(O)c(OC)c1` [Compound 18, N′-(4-Hydroxy-3-methoxybenzylidene)-2-(2-(propylthio)-1H-benzo[d]imidazol-1-yl)acetohydrazide], the IC50 was 22.7 ± 1.37 µM and the “% inhibition” value is 81.2%.
The like results for `CCCSc1nc2ccccc2n1CC(=O)NN=Cc1cccc2ccccc12` [Compound 12, N′-(Naphthalen-1-ylmethylene)-2-(2-(propylthio)-1H-benzo[d]imidazol-1-yl)acetohydrazide] were, in that order, 14.6 ± 0.62 µM and 91.7%.
Turning to `CCCSc1nc2ccccc2n1CC(=O)NN=Cc1cccc(O)c1` [Compound 17, N′-(3-Hydroxybenzylidene)-2-(2-(propylthio)-1H-benzo[d]imidazol-1-yl)acetohydrazide], 31.4 ± 2.29 µM corresponded to half-maximal inhibition (IC50), the “% inhibition” value was found to be 90.7% and the “inhibition activity against bCA-II (in words)” value (“inhibition activity” below) is “least active inhibitors”.
The like results for `CCCSc1nc2ccccc2n1CC(=O)NN=Cc1ccco1` [Compound 25, N′-(Furan-2-ylmethylene)-2-(2-(propylthio)-1H-benzo[d]imidazol-1-yl)acetohydrazide] were, in that order, 193 ± 3.24 µM, 57.0% and “least active inhibitors”.
In the case of `CCCSc1nc2ccccc2n1CC(=O)NN=Cc1ccccc1` [Compound 10, N′-Benzylidene-2-(2-(propylthio)-1H-benzo[d]imidazol-1-yl)acetohydrazide], 17.2 ± 1.24 µM corresponded to half-maximal inhibition (IC50) and the “% inhibition” value was found to be 83.0%.
Regarding `CCCSc1nc2ccccc2n1CC(=O)NN=Cc1cccc(OC)c1OC` [Compound 27, N′-(2,3-Dimethoxybenzylidene)-2-(2-(propylthio)-1H-benzo[d]imidazol-1-yl)acetohydrazide], the IC50 came out at 55.6 ± 4.25 µM, the “% inhibition” value is reported as 89.6% and the “inhibition activity” value is reported as “least active inhibitors”.
Turning to `CCCSc1nc2ccccc2n1CC(=O)NN=Cc1cccc(OC)c1O` [Compound 9, N′-(2-Hydroxy-3-methoxybenzylidene)-2-(2-(propylthio)-1H-benzo[d]imidazol-1-yl)acetohydrazide], the IC50 is 13.3 ± 1.25 µM and the “% inhibition” value came out at 89.1%.
Take `CCCSc1nc2ccccc2n1CC(=O)NN=Cc1ccc(F)cc1` [Compound 24, N′-(4-Fluorobenzylidene)-2-(2-(propylthio)-1H-benzo[d]imidazol-1-yl)acetohydrazide]: the IC50 is 162 ± 3.54 µM, the “% inhibition” value worked out at 84.3% and the “inhibition activity” value was “least active inhibitors”.
Take `CCCSc1nc2ccccc2n1CC(=O)NN=Cc1ccc(O)cc1O` [Compound 14, N′-(2,4-Dihydroxybenzylidene)-2-(2-(propylthio)-1H-benzo[d]imidazol-1-yl)acetohydrazide]: the “% inhibition” value turned out to be 20.8% and the “inhibition activity” value was “inactive”.
The like results for `CCCSc1nc2ccccc2n1CC(=O)NN=Cc1ccc(C)cc1` [Compound 19, N′-(4-Methylbenzylidene)-2-(2-(propylthio)-1H-benzo[d]imidazol-1-yl)acetohydrazide] were, in that order, 13.6% and “inactive”.
Take `CCCSc1nc2ccccc2n1CC(=O)NN=Cc1ccc(O)c(OCC)c1` [Compound 20, N′-(3-Ethoxy-4-hydroxybenzylidene)-2-(2-(propylthio)-1H-benzo[d]imidazol-1-yl)acetohydrazide]: the IC50 came out at 45.5 ± 2.07 µM, the “% inhibition” value came to 67.7% and the “inhibition activity” value is listed as “least active inhibitors”.
Regarding `CCCSc1nc2ccccc2n1CC(=O)NN=Cc1ccc(C)o1` [Compound 26, N′-((5-Methylfuran-2-yl)methylene)-2-(2-(propylthio)-1H-benzo[d]imidazol-1-yl)acetohydrazide], the IC50 turned out to be 166 ± 1.61 µM, the “% inhibition” value was found to be 67.8% and the “inhibition activity” value was “least active inhibitors”.
Turning to `CCCSc1nc2ccccc2n1CC(=O)NN=Cc1ccc(C=O)cc1` [Compound 21, N′-(4-Formylbenzylidene)-2-(2-(propylthio)-1H-benzo[d]imidazol-1-yl)acetohydrazide], the “% inhibition” value is 42.2% and the “inhibition activity” value was “inactive”.
Take `CCCSc1nc2ccccc2n1CC(=O)NN=Cc1ccc(OC)cc1OC` [Compound 15, N′-(2,4-Dimethoxybenzylidene)-2-(2-(propylthio)-1H-benzo[d]imidazol-1-yl)acetohydrazide]: it took 14.5 ± 1.05 µM to reach half-maximal inhibition (IC50) and the “% inhibition” value worked out at 91.2%.
The like results for `CCCSc1nc2ccccc2n1CC(=O)NN=Cc1cccs1` [Compound 23, 2-(2-(Propylthio)-1H-benzo[d]imidazol-1-yl)-N′-(thiophen-2-ylmethylene)acetohydrazide] were, in that order, 24.8 ± 1.24 µM and 89.8%.
The like results for `CCCSc1nc2ccccc2n1CC(=O)NN=Cc1ccccc1OC` [Compound 29, N′-(2-Methoxybenzylidene)-2-(2-(propylthio)-1H-benzo[d]imidazol-1-yl)acetohydrazide] were, in that order, 21 ± 0.74 µM and 88.2%.
In the case of `CCCSc1nc2ccccc2n1CC(=O)NN=Cc1c(Cl)cccc1Cl` [Compound 28, N′-(2,6-Dichlorobenzylidene)-2-(2-(propylthio)-1H-benzo[d]imidazol-1-yl)acetohydrazide], the IC50 stood at 42.1 ± 1.39 µM, the “% inhibition” value is listed as 67.6% and the “inhibition activity” value is given as “least active inhibitors”.
As to `CCCSc1nc2ccccc2n1CC(=O)NN=Cc1ccc(OC)c(OC)c1` [Compound 13, N′-(3,4-Dimethoxybenzylidene)-2-(2-(propylthio)-1H-benzo[d]imidazol-1-yl)acetohydrazide], the “% inhibition” value is on record as 38.1% and the “inhibition activity” value was “inactive”.
As to `CCCSc1nc2ccccc2n1CC(=O)NN=Cc1cccc(OC)c1` [Compound 11, N′-(3-Methoxybenzylidene)-2-(2-(propylthio)-1H-benzo[d]imidazol-1-yl)acetohydrazide], the “% inhibition” value is on record as 22.8% and the “inhibition activity” value was “inactive”.
In the case of `CCCSc1nc2ccccc2n1CC(=O)NN=Cc1ccc(C(C)C)cc1` [Compound 22, N′-(4-Isopropylbenzylidene)-2-(2-(propylthio)-1H-benzo[d]imidazol-1-yl)acetohydrazide], it took 24.7 ± 3 µM to reach half-maximal inhibition (IC50) and the “% inhibition” value stood at 90.1%.
Turning to `CCCSc1nc2ccccc2n1CC(=O)NN=Cc1ccc(N(CC)CC)cc1` [Compound 16, N′-(4-(Diethylamino)benzylidene)-2-(2-(propylthio)-1H-benzo[d]imidazol-1-yl)acetohydrazide], the “% inhibition” value is given as 5.6% and the “inhibition activity” value is “inactive”.

These data come from PMC8756595 (ACS Omega, 2021).
